Measurements reported in US20220265817A1, “THERAPEUTIC COMPOSITIONS AND METHODS FOR TREATING HEPATITIS B” (priority 2017, published 2022).
Read-outs that look alike come from different tables or passages of the source.

Key:
[1] = test system: HBV rcDNA in AML12-HBV10 cells; experiment: AML12-HBV10 cell culture system, rcDNA quantitation using bDNA assay, MacSynergy II; format: cell-based, mouse hepatocyte cell line; conditions: for EC50: read-out: Inhibitor EC50; for inhibition at 0.01 µM: Compound 3 0.010 μM; for inhibition at 0.02 µM: Compound 3 0.020 μM; for inhibition at 0.039 µM: Compound 3 0.039 μM; for inhibition at 0.078 µM: Compound 3 0.078 μM; for inhibition at 0.313 µM: Compound 3 0.313 μM; for inhibition at 0.625 µM: Compound 3 0.625 μM; for inhibition at 1.25 µM: Compound 3 1.250 μM
Method: In vitro combination studies were conducted using the method of Prichard and Shipman (Prichard M N, and Shipman C Jr., Antiviral Research, 1990, 14 (4-5), 181-205; and Prichard M N, et. al., MacSynergy II). The AML12-HBV10 cell line was developed as described in Campagna et al. (Campagna et. al., J. Virology, 2013, 87(12), 6931-6942). It is a mouse hepatocyte cell line stably transfected with the HBV genome, and which can express HBV pregenomic RNA and support HBV rcDNA (relaxed circular DNA) synthesis in a tetracycline-regulated manner. AML12-HBV10 cells were plated in 96 well tissue-culture treated microtiter plates in DMEM/F12 medium supplemented with 10% fetal bovine serum +1% penicillin-streptomycin without tetracycline and incubated in a humidified incubator at 37° C. and 5% CO2 overnight. […] The two inhibitors were tested both singly as well as in combinations in a checkerboard fashion such that each concentration of inhibitor A was combined with each concentration of inhibitor B to determine their combination effects on inhibition of rcDNA production. Following a 48 hour-incubation, the level of rcDNA present in the inhibitor-treated wells was measured using a bDNA assay (Affymetrix) with HBV specific custom probe set and manufacturer's instructions. […] Concurrently, the effect of inhibitor combinations on cell viability was assessed using replicate plates that were used to determine the ATP content as a measure of cell viability using the cell-titer glo reagent (Promega) as per manufacturer's instructions.

hepatitis B virus (HBV) [2] = experiment: Mouse model of HBV (pHBV1.3 hydrodynamic injection), serum HBV DNA quantitative PCR; format: in vivo, NOD.CB17-Prkdc^scid/J mice
Method: On Day −7, 10 micrograms of the plasmid pHBV1.3 (as per Guidotti, L., et al., Journal of Virology, 1995, 69(10): 6158-6169) was administered to NOD.CB17-Prkdc^scid/J mice via hydrodynamic injection (HDI; rapid 1.6 mL injection into the tail vein). […] As a readout of the anti-HBV effect of various treatments, serum HBV DNA concentration in mice was measured from total extracted DNA using a quantitative PCR assay (primer/probe sequences from Tanaka, Y., et al., Journal of Medical Virology, 2004, 72: 223-229).
Animals were treated with Compound 3 as follows: Starting on Day 0, a 50 mg/kg or 100 mg/kg dosage of Compound 3 was administered orally to animals on a twice-daily frequency for a total of fourteen doses between Days 0 and 7. Compound 3 was dissolved in a co-solvent formulation for administration. Negative control animals were administered either the co-solvent formulation alone, or saline. Animals were treated with lipid nanoparticle (LNP)-encapsulated HBV-targeting siRNAs as follows: On Day 0, an amount of test article equivalent to 0.1 mg/kg siRNA was administered intravenously.
The effect of these treatments was determined by collecting blood on Days 0 (pre-treatment), 4 & 7 and analyzing it for serum HBV DNA content.
Animals were treated with Compound 3 as follows: Starting on Day 0, a 100 mg/kg dosage of Compound 3 was administered orally to animals on a twice-daily frequency for a total of fourteen doses between Days 0 and 7. Compound 3 was dissolved in a co-solvent formulation for administration. Negative control animals were administered either the co-solvent formulation alone, or saline. Animals were treated with ETV as follows: Starting on Day 0, either a 100 ng/kg or a 300 ng/kg dosage of ETV was administered orally to animals on a once-daily frequency for a total of seven doses between Days 0 and 6. ETV was dissolved in DMSO to 2 mg/mL and then diluted in saline for administration.
The effect of these treatments was determined by collecting blood on Days 0 (pre-treatment), 4 & 7 and analyzing it for serum HBV DNA content. Samples with Ct values below the lower limit of quantitation (LLOQ) were set to one-half LLOQ for calculation of group means.

hepatitis B virus (HBV) [3] = experiment: Humanized liver chimeric mouse model of chronic HBV infection, serum HBsAg by EIA; format: in vivo; conditions: mean ± SEM
Method: This work was conducted in a well-established humanized liver chimeric mouse model of chronic hepatitis B virus (HBV) infection (Tsuge et al., Hepatology, 42(5), 1046-54 (2005)). A persistent level of HBV infection was established in the animals prior to the treatment phase which started at Day 0.
The anti-HBV effects were assessed based on serum HBsAg levels using the GS HBsAg EIA 3.0 enzyme linked immunosorbent assay kit from Bio-Rad Laboratories as per manufacturer instructions; and serum HBV DNA levels measured from total extracted DNA using a quantitative PCR assay (primer/probe sequences from Tanaka et al., Journal of Medical Virology, 72, 223-229 (2004)).

[4] = Hepatitis B virus, AML12HBV10, in Mus musculus, ETV μM: 0.075, 0.025, 0.008, 0.003, 0.001, 0
[5] = Hepatitis B virus, AML12HBV10, in Mus musculus, SIRNA-NP μg/mL: 0.5, 0.167, 0.056, 0.019, 0.006, 0
[6] = Day 21, Compound 3 oral 100 mg/kg twice daily, SIRNA-NP iv 3 mg/kg every 2 weeks, ETV oral 1.2 μg/kg daily, pegIFN α-2a sc 30 μg/kg twice a week

Work on CC[C@@H](C)NS(=O)(=O)c1ccc(F)c(C(=O)Nc2ccc(F)c(F)c2)c1 [Compound 3] yielded an EC50 ([1]; Hepatitis B virus, AML12HBV10, in Mus musculus, 48 h, rcDNA, AML12-HBV10 cells, 48 hrs) of 0.25 µM, an inhibition at 0.01 µM [1, 4] of -3.19% and an inhibition at 0.01 µM [1, 5] of -1.98%. It also gave an inhibition at 0.02 µM [1, 4] of 0.62%, an inhibition at 0.02 µM [1, 5] of -20.5% and an inhibition at 0.039 µM [1, 4] of 7.38%. It also gave an inhibition at 0.039 µM [1, 5] of -16.9%, an inhibition at 0.078 µM [1, 4] of -1.81% and an inhibition at 0.078 µM [1, 5] of 20.1%. For the same molecule, the inhibition at 0.313 µM [1, 4] was 71%, the inhibition at 0.313 µM [1, 5] was 59.4% and the inhibition at 0.625 µM [1, 4] was 80.8%. The inhibition at 0.625 µM [1, 5] was 79.9%, the inhibition at 1.25 µM [1, 4] was 86.7% and the inhibition at 1.25 µM [1, 5] was 88.1%. For the same molecule, the inhibition at 2.5 µM ([1]; Hepatitis B virus, AML12HBV10, in Mus musculus, Compound 3 2.500 μM, ETV μM: 0.075, 0.025, 0.008, 0.003, 0.001, 0) was 90.5%, the inhibition at 2.5 µM ([1]; Hepatitis B virus, AML12HBV10, in Mus musculus, Compound 3 2.5 μM, SIRNA-NP μg/mL: 0.5, 0.167, 0.056, 0.019, 0.006, 0) was 89.7% and the EC50 ([1]; rcDNA, AML12-HBV10 cells, 48 hrs) was 0.231 µM. For the same molecule, the “Serum HBV DNA, % of individual pre-treatment baseline (Day 0)” value (from here on “Serum HBV DNA, %”) (hepatitis B virus (HBV) [2]; Example 2, Day 4, Compound 3 50 mg/kg oral twice daily, mean ± SEM) was 13 ± 4%, the “Serum HBV DNA, %” value (hepatitis B virus (HBV) [2]; Example 2, Day 4, Compound 3 100 mg/kg oral twice daily) was 8.6 ± 1.5% and the “Serum HBV DNA, %” value (hepatitis B virus (HBV) [2]; Example 2, Day 7, Compound 3 50 mg/kg oral twice daily) was 33 ± 9%. The “Serum HBV DNA, %” value (hepatitis B virus (HBV) [2]; Example 2, Day 7, Compound 3 100 mg/kg oral twice daily) was 12 ± 5%, the “Serum HBV DNA, %” value (hepatitis B virus (HBV) [2]; Example 3, Day 4, Compound 3 100 mg/kg oral twice daily, mean ± SEM) was 9.3 ± 2.5% and the “Serum HBV DNA, %” value (hepatitis B virus (HBV) [2]; Example 3, Day 7, Compound 3 100 mg/kg oral twice daily) was 1.2 ± 0.3%. The “Serum HBsAg” value (hepatitis B virus (HBV) [3]; Day 0 (start of treatment)) was 2965 ± 616 IU/mL and the “Serum HBsAg” value (hepatitis B virus (HBV) [3]; [6]) was 4158 ± 355 IU/mL.
In the case of C=C1[C@H](CO)[C@@H](O)C[C@@H]1n1cnc2c(=O)[nH]c(N)nc21 [Entecavir], the EC50 ([1]; Hepatitis B virus, AML12HBV10, in Mus musculus, 48 h) is reported as 0.012 µM, the “Serum HBV DNA, %” value (hepatitis B virus (HBV) [2]; Example 3, Day 4, ETV 100 ng/kg oral once daily) is reported as 21 ± 5% and the “Serum HBV DNA, %” value (hepatitis B virus (HBV) [2]; Example 3, Day 4, ETV 300 ng/kg oral once daily) is reported as 1.6 ± 0.3%. For the same molecule, the “Serum HBV DNA, %” value (hepatitis B virus (HBV) [2]; Example 3, Day 7, ETV 100 ng/kg oral once daily) was 3.5 ± 0.7%, the “Serum HBV DNA, %” value (hepatitis B virus (HBV) [2]; Example 3, Day 7, ETV 300 ng/kg oral once daily) was 0.88 ± 0.31% and the “Serum HBsAg” value (hepatitis B virus (HBV) [3]; Day 0 (start of treatment)) was 2649 ± 282 IU/mL. The “Serum HBsAg” value (hepatitis B virus (HBV) [3]; [6]) was 2975 ± 629 IU/mL.
